Results taken from patent US20230303564A1, “PYRIMIDINE RING COMPOUND” (MEDSHINE DISCOVERY INC., priority 2020, published 2023).

What was measured:
Type in all cases: biochemical
[1] = molecular target: CDK9/CyclinT1 (Homo sapiens (Human), UniProt P50750); assay: CDK9/CyclinT1 enzyme activity test (ADP-Glo); details: 100 μM ATP, 25° C. 120 minutes, read-out: CDK 9/Cyclin T1 IC50
Method: CDK9/CyclinT1 Enzyme Reaction System
(§1) Enzymes, substrates, ATP, and inhibitors were diluted by kinase buffer in the kit. The compounds to be tested were diluted 5-fold with a multi-channel pipette to the eighth concentration, that is, from 50 μM to 0.65 nM, the concentration of DMSO was 5%, and a double-hole experiment was set up. 1 μL of each concentration gradient of inhibitors, 2 μL of CDK9/CyclinT1 enzyme (4 ng), 2 μL mixture of substrate and ATP (100 μM ATP, 0.2 μg/μL substrate) were added to the microplates, and the final concentration gradient of the compound was 10 μM to 0.13 nM. The reaction system was reacted at 25° C. for 120 minutes. After the reaction, 5 μL of ADP-Glo reagent was added to each well, the reaction was carried out at 25° C. for 40 minutes, after the reaction was completed, 10 μL of kinase detection reagent was added to each well, the reaction was carried out at 25° C. for 30 minutes, the multiple label analyzer was used to read the chemiluminescence with an integration time of 0.5 seconds.
(§2) The equation (Sample−Min)/(Max−Min)*100% was used to convert the raw data into inhibition rate, and the value of IC50 can be obtained by curve fitting with four parameters (obtained by log (inhibitor) vs. response-Variable slope mode in GraphPad Prism). The enzymatic inhibitory activity of the compounds of the present disclosure on CDK1/CyclinB1, CDK2/CyclinA2, CDK2/CyclinE1, CDK4/CyclinD1, CDK6/CyclinD1, CDK7/CyclinH/MAT1, CDK9/CyclinT1 was provided in Table 1.

[2] = molecular target: CDK1/CyclinB1 (Homo sapiens (Human), UniProt P06493); assay: CDK1/CyclinB1 enzyme activity test (ADP-Glo); details: 25 μM ATP, 25° C. 120 minutes, read-out: CDK1/Cyclin B IC50
Method: CDK1/CyclinB1 Enzyme Reaction System
as §1, with “of CDK1/CyclinB1” for “of CDK9/CyclinT1”, “enzyme (12.5” for “enzyme (4”, “ATP (25” for “ATP (100”, “μM adenosine triphosphate,” for “μM ATP,”
as §2

[3] = molecular target: CDK4/CyclinD1 (Homo sapiens (Human), UniProt P11802); assay: CDK4/CyclinD1 enzyme activity test (LANCE Ultra TR-FRET); details: 350 μM ATP, 25° C. 120 minutes, read-out: CDK4/Cyclin D1 IC50
Method: CDK4/CyclinD1 Enzyme Reaction System
(§3) Preparation of Kinase Buffer:
(§4) The composition of the buffer: 50 mM of hydroxyethylpiperazine ethanesulfonic acid solution at pH 7.5, 1 mM of ethylenediaminetetraacetic acid, 10 mM of magnesium chloride, 0.01% Brij-35, and 2 mM of dithiothreitol.
(§5) Enzymes, substrate LANCE Ultra ULight™-4E-BP-1(Thr37146) Peptide, ATP, and inhibitors were diluted by kinase buffer.
(§6) The compounds to be tested were diluted 5-fold with a multi-channel pipette to the eighth concentration, that is, from 40 μM to 0.512 nM, the concentration of DMSO was 4%, and a double-hole experiment was set up. […] The reaction system was reacted at 25° C. for 120 minutes. After the reaction, 5 μL mixture of EDTA and 2× LANCE™ Detection Buffer (1:1) were added to each well, the reaction was carried out at 25° C. for 5 minutes, after the reaction was completed, 5 μL of LANCE Ultra Eu-anti-P-4E-BP1(Thr37MS) (4 nM) was added to each well, the reaction was carried out at 25° C. for 60 minutes, the reaction signal was detected by Nivo instrument according to the principle of time-resolved fluorescence resonance energy transfer.
as §2

[4] = molecular target: CDK2/CyclinE1 (Homo sapiens (Human), UniProt P24941); assay: CDK2/CyclinE1 enzyme activity test (ADP-Glo); details: 150 μM ATP, 25° C. 60 minutes, read-out: CDK2/Cyclin E1 IC50
Method: CDK2/CyclinE1 Enzyme Reaction System
as §1, with “CDK2/CyclinE1” for “CDK9/CyclinT1”, “(2” for “(4”, “(150” for “(100”, “0.1” for “0.2”, “60” for “120”
as §2

[5] = molecular target: CDK6/CyclinD1 (Homo sapiens (Human), UniProt Q00534); assay: CDK6/CyclinD1 enzyme activity test (LANCE Ultra TR-FRET); details: 250 μM ATP, 25° C. 120 minutes, read-out: CDK6/Cyclin D1 IC50
Method: CDK6/CyclinD1 Enzyme Reaction System
as §3, §4, §5, §6, §2

[6] = molecular target: CDK2/CyclinA2 (Homo sapiens (Human), UniProt P24941); assay: CDK2/CyclinA2 enzyme activity test (ADP-Glo); details: 50 μM ATP, 25° C. 60 minutes, read-out: CDK2/Cyclin A2 IC50
Method: CDK2/CyclinA2 Enzyme Reaction System
as §1, with “CDK2/CyclinA2” for “CDK9/CyclinT1”, “(1.6” for “(4”, “(50” for “(100”, “0.1” for “0.2”, “60” for “120”, “seconds” for “seconds.”
as §2

[7] = molecular target: CDK7/CyclinH/MAT1 (Homo sapiens (Human), UniProt P50613); assay: CDK7/CyclinH/MAT1 enzyme activity test (ADP-Glo); details: 10 μM ATP, 25° C. 120 minutes, read-out: CDK7/Cyclin H IC50
CDK7/CyclinH/MAT1, sequence (P50613 whole entry): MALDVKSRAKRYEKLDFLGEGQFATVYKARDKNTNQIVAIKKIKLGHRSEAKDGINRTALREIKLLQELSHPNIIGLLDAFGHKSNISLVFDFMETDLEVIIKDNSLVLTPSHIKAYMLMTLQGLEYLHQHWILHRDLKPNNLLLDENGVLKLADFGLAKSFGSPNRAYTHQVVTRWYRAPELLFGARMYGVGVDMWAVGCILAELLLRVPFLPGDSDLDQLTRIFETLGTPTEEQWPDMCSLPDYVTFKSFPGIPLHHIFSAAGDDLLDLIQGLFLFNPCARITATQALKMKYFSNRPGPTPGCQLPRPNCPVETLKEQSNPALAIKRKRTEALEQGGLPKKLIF
CDK7/CyclinH/MAT1, sequence (P51946 whole entry partner): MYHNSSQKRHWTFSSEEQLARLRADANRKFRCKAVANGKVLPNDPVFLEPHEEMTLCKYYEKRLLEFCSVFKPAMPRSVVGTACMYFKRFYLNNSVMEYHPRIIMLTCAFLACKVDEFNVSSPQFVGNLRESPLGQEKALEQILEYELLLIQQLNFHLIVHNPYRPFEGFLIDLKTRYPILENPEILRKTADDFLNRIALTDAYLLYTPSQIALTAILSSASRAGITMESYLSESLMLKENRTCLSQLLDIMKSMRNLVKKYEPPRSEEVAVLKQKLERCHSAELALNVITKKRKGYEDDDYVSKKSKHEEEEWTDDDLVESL
CDK7/CyclinH/MAT1, sequence (P51948 whole entry partner): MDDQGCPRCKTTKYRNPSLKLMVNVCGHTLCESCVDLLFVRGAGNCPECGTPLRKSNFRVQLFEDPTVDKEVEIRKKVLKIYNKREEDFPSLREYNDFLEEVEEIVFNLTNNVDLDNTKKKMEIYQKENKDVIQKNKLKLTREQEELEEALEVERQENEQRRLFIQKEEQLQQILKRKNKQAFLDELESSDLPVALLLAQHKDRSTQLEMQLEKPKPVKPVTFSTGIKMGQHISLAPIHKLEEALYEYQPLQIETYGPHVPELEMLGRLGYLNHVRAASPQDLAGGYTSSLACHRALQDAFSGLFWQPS
Method: CDK7/CyclinH/MAT1 Enzyme Reaction System
Enzymes, substrates (MBP), ATP, and inhibitors were diluted by kinase buffer in the kit. The compounds to be tested were diluted 5-fold with a multi-channel pipette to the eighth concentration, that is, from 50 μM to 0.65 nM, the concentration of DMSO was 5%, and a double-hole experiment was set up. 1 μL of each concentration gradient of inhibitors, 2 μL of CDK7/CyclinH/MAT1 enzyme (20 ng), 2 μL mixture of substrate and ATP (10 μM ATP, 0.1 μg/μL substrate) were added to the microplates, and the final concentration gradient of the compound was 10 μM to 0.13 nM. The reaction system was reacted at 25° C. for 120 minutes. After the reaction, 5 μL of ADP-Glo reagent was added to each well, the reaction was carried out at 25° C. for 40 minutes, after the reaction was completed, 10 μL of kinase detection reagent was added to each well, the reaction was carried out at 25° C. for 30 minutes, the multiple label analyzer was used to read the chemiluminescence with an integration time of 0.5 seconds.

CDK9/CyclinT1, sequence (P50750 whole entry): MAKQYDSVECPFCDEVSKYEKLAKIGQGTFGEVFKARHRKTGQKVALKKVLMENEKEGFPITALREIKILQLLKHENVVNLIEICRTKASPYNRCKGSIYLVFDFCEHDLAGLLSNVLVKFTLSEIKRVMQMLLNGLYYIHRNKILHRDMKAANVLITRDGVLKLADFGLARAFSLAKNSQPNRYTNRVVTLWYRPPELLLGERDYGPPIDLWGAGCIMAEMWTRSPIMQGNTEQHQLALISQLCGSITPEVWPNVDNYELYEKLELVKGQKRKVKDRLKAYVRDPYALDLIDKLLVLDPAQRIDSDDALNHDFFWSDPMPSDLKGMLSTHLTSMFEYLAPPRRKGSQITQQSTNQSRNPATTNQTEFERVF
CDK9/CyclinT1, sequence (O60563 whole entry partner): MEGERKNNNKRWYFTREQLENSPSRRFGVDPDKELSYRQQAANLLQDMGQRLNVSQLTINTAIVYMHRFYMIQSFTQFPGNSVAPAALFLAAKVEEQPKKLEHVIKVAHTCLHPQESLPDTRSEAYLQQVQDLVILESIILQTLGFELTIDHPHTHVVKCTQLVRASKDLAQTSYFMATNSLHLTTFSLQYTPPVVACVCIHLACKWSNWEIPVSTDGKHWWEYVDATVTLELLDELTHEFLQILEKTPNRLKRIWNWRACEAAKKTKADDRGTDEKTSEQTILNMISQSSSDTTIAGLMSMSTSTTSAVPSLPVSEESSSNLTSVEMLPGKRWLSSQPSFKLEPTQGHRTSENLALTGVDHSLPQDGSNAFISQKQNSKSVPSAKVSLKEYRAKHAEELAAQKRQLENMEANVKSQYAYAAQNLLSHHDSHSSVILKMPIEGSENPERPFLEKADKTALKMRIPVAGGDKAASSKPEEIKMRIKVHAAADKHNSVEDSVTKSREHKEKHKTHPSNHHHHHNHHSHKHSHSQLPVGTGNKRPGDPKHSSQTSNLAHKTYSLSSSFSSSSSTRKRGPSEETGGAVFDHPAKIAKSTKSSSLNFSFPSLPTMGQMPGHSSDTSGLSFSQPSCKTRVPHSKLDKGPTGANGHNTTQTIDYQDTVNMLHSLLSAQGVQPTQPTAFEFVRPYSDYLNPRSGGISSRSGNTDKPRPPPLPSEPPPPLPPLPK
CDK4/CyclinD1, sequence (P11802 whole entry): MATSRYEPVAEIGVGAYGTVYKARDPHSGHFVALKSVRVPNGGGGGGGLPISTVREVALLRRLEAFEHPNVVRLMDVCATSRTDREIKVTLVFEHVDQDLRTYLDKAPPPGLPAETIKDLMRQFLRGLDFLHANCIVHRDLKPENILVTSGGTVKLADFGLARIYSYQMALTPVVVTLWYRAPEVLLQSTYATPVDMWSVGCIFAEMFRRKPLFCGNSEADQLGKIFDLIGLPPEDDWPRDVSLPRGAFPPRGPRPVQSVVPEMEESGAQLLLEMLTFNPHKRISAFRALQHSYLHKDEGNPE
CDK4/CyclinD1, sequence (P24385 whole entry partner): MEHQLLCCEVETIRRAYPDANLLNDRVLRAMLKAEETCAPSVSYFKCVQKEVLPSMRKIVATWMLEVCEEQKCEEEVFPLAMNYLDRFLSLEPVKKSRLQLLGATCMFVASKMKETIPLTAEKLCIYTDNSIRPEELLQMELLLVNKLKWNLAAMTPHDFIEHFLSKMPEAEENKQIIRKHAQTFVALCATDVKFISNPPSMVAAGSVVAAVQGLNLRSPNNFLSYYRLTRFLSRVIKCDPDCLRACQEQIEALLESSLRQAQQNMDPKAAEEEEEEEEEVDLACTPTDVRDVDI
CDK1/CyclinB1, sequence (P06493 whole entry): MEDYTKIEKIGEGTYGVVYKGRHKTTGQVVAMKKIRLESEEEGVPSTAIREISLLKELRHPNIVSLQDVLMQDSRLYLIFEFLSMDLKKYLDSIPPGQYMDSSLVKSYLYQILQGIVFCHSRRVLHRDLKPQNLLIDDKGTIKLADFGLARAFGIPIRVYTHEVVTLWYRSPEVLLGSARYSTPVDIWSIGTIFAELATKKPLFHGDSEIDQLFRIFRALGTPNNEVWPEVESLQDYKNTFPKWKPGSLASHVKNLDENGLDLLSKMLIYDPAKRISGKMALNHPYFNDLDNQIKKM
CDK1/CyclinB1, sequence (P14635 whole entry partner): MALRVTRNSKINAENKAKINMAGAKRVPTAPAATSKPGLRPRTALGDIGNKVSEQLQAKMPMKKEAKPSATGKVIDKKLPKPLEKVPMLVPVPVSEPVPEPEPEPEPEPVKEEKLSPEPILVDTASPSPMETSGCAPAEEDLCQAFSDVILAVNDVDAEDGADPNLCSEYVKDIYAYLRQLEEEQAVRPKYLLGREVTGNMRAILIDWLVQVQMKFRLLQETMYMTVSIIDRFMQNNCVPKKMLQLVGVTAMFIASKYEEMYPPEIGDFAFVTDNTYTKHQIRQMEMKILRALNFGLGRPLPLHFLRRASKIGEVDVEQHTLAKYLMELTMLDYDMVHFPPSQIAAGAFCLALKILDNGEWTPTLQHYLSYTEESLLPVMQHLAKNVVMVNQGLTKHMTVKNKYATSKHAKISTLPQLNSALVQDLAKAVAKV
CDK6/CyclinD1, sequence (Q00534 whole entry): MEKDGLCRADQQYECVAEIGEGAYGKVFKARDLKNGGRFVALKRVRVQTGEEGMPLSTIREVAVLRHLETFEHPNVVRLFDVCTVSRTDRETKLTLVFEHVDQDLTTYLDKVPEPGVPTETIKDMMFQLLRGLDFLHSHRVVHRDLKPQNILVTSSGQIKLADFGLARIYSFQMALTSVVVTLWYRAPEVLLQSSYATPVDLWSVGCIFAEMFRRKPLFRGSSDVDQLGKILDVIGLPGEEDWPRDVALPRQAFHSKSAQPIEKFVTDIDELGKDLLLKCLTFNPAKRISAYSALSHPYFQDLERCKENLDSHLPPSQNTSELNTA
CDK6/CyclinD1, sequence (P24385 whole entry partner): as the sequence (P24385 whole entry partner) above

- IC50 [1]: 89 nM
- IC50 [2]: 6.77 nM
- IC50 [3]: 1.23 nM
- IC50 [4]: 3.92 nM
- IC50 [5]: 0.81 nM
- IC50 [6]: 0.73 nM
- IC50 [7]: 41 nM
SMILES: Cc1cc2cnc(NC3CCN(S(C)(=O)=O)CC3)nc2c(N[C@@H]2CCC[C@@]2(C)O)n1 [Compound 8]
